Measured values as given in ChEMBL document CHEMBL3098113, “Identification of quinones as HER2 inhibitors for the treatment of trastuzumab resistant breast cancer” (Bioorg Med Chem Lett, 2014).
The source made the active and inactive calls. The calls are words filed in the database; no cut-off is given here.

Columns and labels:
[1] = molecular target: T1, Receptor tyrosine-protein kinase erbB-2 (Homo sapiens, UniProt P04626); assay: Inhibition of HER2 autophosphorylation at Y1248 in human MCF7 cells expressing pcDNA3 at 10 uM after 2 hrs by Western blotting; assay type: cell-based
T1 sequence (P04626 whole entry): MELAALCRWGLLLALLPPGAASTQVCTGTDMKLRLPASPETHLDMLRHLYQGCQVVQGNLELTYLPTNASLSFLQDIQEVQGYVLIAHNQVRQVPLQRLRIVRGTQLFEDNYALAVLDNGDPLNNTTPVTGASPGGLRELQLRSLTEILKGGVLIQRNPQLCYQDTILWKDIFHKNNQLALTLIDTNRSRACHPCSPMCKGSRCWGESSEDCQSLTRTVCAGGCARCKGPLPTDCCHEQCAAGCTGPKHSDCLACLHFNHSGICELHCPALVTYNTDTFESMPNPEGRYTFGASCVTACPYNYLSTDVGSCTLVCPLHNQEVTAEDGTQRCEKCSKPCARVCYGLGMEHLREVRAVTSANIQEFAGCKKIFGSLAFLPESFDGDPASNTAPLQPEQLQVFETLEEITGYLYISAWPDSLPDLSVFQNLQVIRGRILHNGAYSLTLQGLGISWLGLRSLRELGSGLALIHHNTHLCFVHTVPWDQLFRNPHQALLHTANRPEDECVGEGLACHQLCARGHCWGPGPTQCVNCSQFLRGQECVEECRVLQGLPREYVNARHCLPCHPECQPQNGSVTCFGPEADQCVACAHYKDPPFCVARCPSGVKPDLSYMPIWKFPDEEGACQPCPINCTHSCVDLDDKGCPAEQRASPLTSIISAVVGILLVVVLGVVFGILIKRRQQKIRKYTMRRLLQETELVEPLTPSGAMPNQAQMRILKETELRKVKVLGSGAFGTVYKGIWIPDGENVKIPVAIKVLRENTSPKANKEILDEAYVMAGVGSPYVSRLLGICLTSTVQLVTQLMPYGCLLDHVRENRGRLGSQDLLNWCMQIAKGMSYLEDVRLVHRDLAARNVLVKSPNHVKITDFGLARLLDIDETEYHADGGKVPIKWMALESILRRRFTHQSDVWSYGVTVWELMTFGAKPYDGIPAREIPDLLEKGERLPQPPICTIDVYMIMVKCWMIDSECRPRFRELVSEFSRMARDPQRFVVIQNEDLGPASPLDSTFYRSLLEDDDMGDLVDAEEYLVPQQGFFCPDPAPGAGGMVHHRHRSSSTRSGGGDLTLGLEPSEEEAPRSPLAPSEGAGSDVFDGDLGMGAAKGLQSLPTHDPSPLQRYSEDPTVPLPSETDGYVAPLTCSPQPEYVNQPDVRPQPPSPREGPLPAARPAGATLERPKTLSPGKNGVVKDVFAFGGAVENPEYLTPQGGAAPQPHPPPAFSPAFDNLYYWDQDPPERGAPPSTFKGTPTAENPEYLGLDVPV

MCF7 [2] = assay: Inhibition of HER2 delta16 mutant autophosphorylation at Y1248 in human MCF7 cells at 10 uM after 2 hrs by Western blotting; assay type: cell-based
[3] = molecular target: T1, Receptor tyrosine-protein kinase erbB-2; assay: Inhibition of HER2 autophosphorylation at Y1248 in human MCF7 cells at 10 uM after 2 hrs by Western blotting; assay type: cell-based
MCF7 [4] = assay: Cytotoxicity against human MCF7 cells expressing HER2delta16 assessed as reduction of cell viability after 48 hrs CellTiter-Glo assay; assay type: functional, cell-based; conditions: MCF7, 48 h
MCF7 [5] = assay: Cytotoxicity against human MCF7 cells expressing pcDNA3 assessed as reduction of cell viability after 48 hrs CellTiter-Glo assay; assay type: functional, cell-based; conditions: MCF7, 48 h
MCF7 [6] = assay: Cytotoxicity against human MCF7 cells expressing HER2 assessed as reduction of cell viability at 10 uM after 48 hrs CellTiter-Glo assay; assay type: functional
MCF7 [7] = assay: Cytotoxicity against human MCF7 cells expressing HER2delta16 assessed as reduction of cell viability at 10 uM after 48 hrs CellTiter-Glo assay; assay type: functional
[8] = molecular target: T1, Receptor tyrosine-protein kinase erbB-2; assay: Inhibition of HER2 (unknown origin) by ADP-Glo assay
MCF7 [9] = assay: Cytotoxicity against human MCF7 cells expressing HER2 assessed as reduction of cell viability after 48 hrs CellTiter-Glo assay; assay type: functional, cell-based; conditions: MCF7, 48 h
MCF7 [10] = assay: Cytotoxicity against human MCF7 cells expressing pcDNA3 assessed as reduction of cell viability at 10 uM after 48 hrs CellTiter-Glo assay; assay type: functional

Structure (SMILES)	inhibition [1]	inhibition (MCF7 [2])	inhibition [3]	IC50 (MCF7 [4]) [µM]	IC50 (MCF7 [5]) [µM]	Activity (MCF7 [6]) [%]	Activity (MCF7 [7]) [%]	IC50 [8] [µM]	IC50 (MCF7 [9]) [µM]	Activity (MCF7 [10]) [%]
CC(=O)Oc1ccc(O)c2c1C(=O)C=CC2=O	inactive	inactive	inactive							
O=C1C(CO)=C(CO)C(=O)c2c(O)ccc(O)c21	Active	Active	Active	0.93	0.5	>90	>90	11.4	0.82	>90
CS(=O)(=O)CCNCc1ccc(-c2ccc3ncnc(Nc4ccc(OCc5cccc(F)c5)c(Cl)c4)c3c2)o1 [LAPATINIB]	Active	Active	Active	19.2	15.7	<50	<50		15.8	<50
O=C1C2=C(C(=O)c3c(O)ccc(O)c31)[C@@H](O)[C@@H](O)[C@@H](O)C2	Active	Active	Active	0.91	0.47	>90	>90	10.8	0.87	>90
CC1=CC(=O)c2c(O)cccc2C1=O [PLUMBAGIN]	Active	Active	Active	5.1	3.35	>90	>90	30.8	2.84	>90
